12 compounds from US20240238425A1, “HSD17B13 Inhibitors and/or Degraders” (Pfizer Inc., priority 2022, published 2024) can be followed below.

SMILES strings stand for the structures. Where a name gives a salt, the structure may show the parent alone.

This experiment deals with HiBiT-HSD17β13 fusion protein (N-terminal HiBiT-tagged HSD17β13 isoform D) in Huh7 HiBiT-HSD17β13 OE cells. Put plainly: Whole-cell Huh7-HSD17B13 HiBiT assay (degrader potency and maximal efficacy, luminescence readout). Type of experiment: cell-based, human. The following applies: 24 hour incubation, geometric mean, * = geometric mean for all forms tested (parent and salt forms); for DC50: read-out: Huh7_HIBIT-HSD17β13_DC50 GMean DC50; for Huh7_HIBIT-HSD17β13_DC50 GMean Asymptote Maximum: max. concentration 1 μM. The gist of the method:
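Huh7 cells stably overexpressing N-terminal HiBiT-tagged HSD17β13 isoform D, clone matched to primary hepatocyte expression, were exposed to an 11-point, 1 in 3.162 dilution series (top 1 μM final) for 24 h at 37° C. Lytic HiBiT luminescence was normalised to DMSO and parental-cell controls; DC50 from four-parameter logistic fit, with CellTiter-Glo counter screen.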

Turning to `Cc1ccc(C(=O)N2CCC3(CC2)CC(N2CCN(c4ncc(-c5ccc6cn(C7CCC(CNC(=O)c8cc(F)c(O)c(F)c8F)CC7)nc6c5)cn4)CC2)CO3)cc1N1CCC(=O)NC1=O` (stereo not drawn) [Example 11, N-{[(1r,4r)-4-{6-[2-(4-{8-[3-(2,4-Dioxo-1,3-diazinan-1-yl)-4-methylbenzoyl]-1-oxa-8-azaspiro[4.5]decan-3-yl}piperazin-1-yl)pyrimidin-5-yl]-2H-indazol-2-yl}cyclohexyl]methyl}-2,3,5-trifluoro-4-hydroxybenzamide], the 50% degradation concentration (DC50) was determined as 0.94 nM and the “Huh7_HIBIT-HSD17β13_DC50 GMean Asymptote Maximum” value is 81%.
As to `O=C(O)C(F)(F)F.O=C1CCN(c2cnc3cc(CCCN4CCN(c5ncc(-c6ccc7cn(C8CCC(CNC(=O)c9cc(F)c(O)c(F)c9F)CC8)nc7c6)cn5)CC4)ccn23)C(=O)N1` (stereo not drawn) [Example 19, N-{[(1r,4r)-4-{6-[2-(4-{3-[3-(2,4-Dioxo-1,3-diazinan-1-yl)imidazo[1,2-a]pyridin-7-yl]propyl}piperazin-1-yl)pyrimidin-5-yl]-2H-indazol-2-yl}cyclohexyl]methyl}-2,3,5-trifluoro-4-hydroxybenzamide, trifluoroacetate salt], the DC50 is 0.73 nM and the “Huh7_HIBIT-HSD17β13_DC50 GMean Asymptote Maximum” value came out at 82%.
On the same counts, the results for `Cc1ccc(C(=O)N2CCC(CCCCN3CCN(c4ccc5cn(C6CCC(CNC(=O)c7cc(F)c(O)c(F)c7F)CC6)nc5c4)CC3)CC2)cc1N1CCC(=O)NC1=O` (stereo not drawn) [Example 20, N-{[(1r,4r)-4-{6-[4-(4-{1-[3-(2,4-Dioxo-1,3-diazinan-1-yl)-4-methylbenzoyl]piperidin-4-yl}butyl)piperazin-1-yl]-2H-indazol-2-yl}cyclohexyl]methyl}-2,3,5-trifluoro-4-hydroxybenzamide] are 2.3 nM and 78%.
In the case of `Cc1ccc(C(=O)N2CCC(CCCn3cc(-c4ccc5cn([C@H]6CC[C@H](CNC(=O)c7cc(F)c(O)c(F)c7)CC6)nc5c4)cn3)CC2)cc1N1CCC(=O)NC1=O` [Example 23, N-{[(1r,4r)-4-{6-[1-(3-{1-[3-(2,4-dioxo-1,3-diazinan-1-yl)-4-methylbenzoyl]piperidin-4-yl}propyl)-1H-pyrazol-4-yl]-2H-indazol-2-yl}cyclohexyl]methyl}-3,5-difluoro-4-hydroxybenzamide], the DC50 worked out at 2.4 nM and the “Huh7_HIBIT-HSD17β13_DC50 GMean Asymptote Maximum” value amounted to 75%.
The matching figures for `O=C1CCN(c2cnn3cc(CCCN4CCOC5(CCN(c6ccc7cn([C@H]8CC[C@H](CNC(=O)c9cc(F)c(O)c(F)c9F)CC8)nc7c6)CC5)C4)ccc23)C(=O)N1` [Example 28, N-({(1r,4r)-4-[6-(4-{3-[3-(2,4-dioxo-1,3-diazinan-1-yl)pyrazolo[1,5-a]pyridin-6-yl]propyl}-1-oxa-4,9-diazaspiro[5.5]undecan-9-yl)-2H-indazol-2-yl]cyclohexyl}methyl)-2,3,5-trifluoro-4-hydroxybenzamide]: 0.59 nM and 90%.
The matching figures for `O=C1CCN(c2cnn3cc(CCCN4CC(F)(F)C5(C4)CN(c4ccc6cn([C@H]7CC[C@H](CNC(=O)c8cc(F)c(O)c(F)c8F)CC7)nc6c4)C5)ccc23)C(=O)N1` [Example 29, N-({(1r,4r)-4-[6-(6-{3-[3-(2,4-dioxo-1,3-diazinan-1-yl)pyrazolo[1,5-a]pyridin-6-yl]propyl}-8,8-difluoro-2,6-diazaspiro[3.4]octan-2-yl)-2H-indazol-2-yl]cyclohexyl}methyl)-2,3,5-trifluoro-4-hydroxybenzamide]: 1.9 nM and 80%.
On the same counts, the results for `Cc1ccc(C(=O)N2CCC(CCCN3CCN(c4ccc5cn([C@H]6CC[C@H](CNC(=O)c7cc(F)c(O)c(F)c7F)CC6)nc5c4)CC3)CC2)cc1N1CCC(=O)NC1=O` [Example 40, N-{[(1r,4r)-4-{6-[4-(3-{1-[3-(2,4-dioxo-1,3-diazinan-1-yl)-4-methylbenzoyl]piperidin-4-yl}propyl)piperazin-1-yl]-2H-indazol-2-yl}cyclohexyl]methyl}-2,3,5-trifluoro-4-hydroxybenzamide, trifluoroacetate salt] are 4.1 nM and 74%.
`Cc1ccc(C(=O)N2CCN(CC3CCN(c4ncc(-c5ccc6cn([C@H]7CC[C@H](CNC(=O)c8cc(F)c(O)c(F)c8F)CC7)nc6c5)cn4)CC3)CC2)cc1N1CCC(=O)NC1=O` [Example 42, N-{[(1r,4r)-4-(6-{2-[4-({4-[3-(2,4-dioxo-1,3-diazinan-1-yl)-4-methylbenzoyl]piperazin-1-yl}methyl)piperidin-1-yl]pyrimidin-5-yl}-2H-indazol-2-yl)cyclohexyl]methyl}-2,3,5-trifluoro-4-hydroxybenzamide, trifluoroacetate salt]: the DC50 is 3.3 nM and the “Huh7_HIBIT-HSD17β13_DC50 GMean Asymptote Maximum” value came to 83%.
On the same counts, the results for `Cc1ccc(C(=O)N2CCC(CN3CCN(c4ncc(-c5ccc6cn([C@H]7CC[C@H](CNC(=O)c8cc(F)c(O)c(F)c8F)CC7)nc6c5)cn4)CC3)CC2)cc1N1CCC(=O)NC1=O` [Example 45, N-{[(1r,4r)-4-(6-{2-[4-({1-[3-(2,4-dioxo-1,3-diazinan-1-yl)-4-methylbenzoyl]piperidin-4-yl}methyl)piperazin-1-yl]pyrimidin-5-yl}-2H-indazol-2-yl)cyclohexyl]methyl}-2,3,5-trifluoro-4-hydroxybenzamide, trifluoroacetate salt] are 3.1 nM and 76%.
On the same counts, the results for `O=C1CCN(c2cnc3cc(CCCN4CCN(c5ccc6cn([C@H]7CC[C@H](CNC(=O)c8cc(F)c(O)c(F)c8F)CC7)nc6c5)CC4)ccn23)C(=O)N1` [Example 47, N-({(1r,4r)-4-[6-(4-{3-[3-(2,4-dioxo-1,3-diazinan-1-yl)imidazo[1,2-a]pyridin-7-yl]propyl}piperazin-1-yl)-2H-indazol-2-yl]cyclohexyl}methyl)-2,3,5-trifluoro-4-hydroxybenzamide, trifluoroacetate salt] are 4.3 nM and 78%.
On the same counts, the results for `O=C1CCN(c2cnn3cc(CCCN4CCN(c5ccc6cn([C@H]7CC[C@H](CNC(=O)c8cc(F)c(O)c(F)c8F)CC7)nc6c5)CC4)ccc23)C(=O)N1` [Example 48, N-({(1r,4r)-4-[6-(4-{3-[3-(2,4-dioxo-1,3-diazinan-1-yl)pyrazolo[1,5-a]pyridin-6-yl]propyl}piperazin-1-yl)-2H-indazol-2-yl]cyclohexyl}methyl)-2,3,5-trifluoro-4-hydroxybenzamide, trifluoroacetate salt] are 1.5 nM and 74%.
For the compound `Cc1ccc(C(=O)N2CCC(CN3CCN(c4ccc(-c5ccc6cn([C@H]7CC[C@H](CNC(=O)c8cc(F)c(O)c(F)c8F)CC7)nc6c5)nn4)CC3)CC2)cc1N1CCC(=O)NC1=O` [Example 49, N-{[(1r,4r)-4-(6-{6-[4-({1-[3-(2,4-dioxo-1,3-diazinan-1-yl)-4-methylbenzoyl]piperidin-4-yl}methyl)piperazin-1-yl]pyridazin-3-yl}-2H-indazol-2-yl)cyclohexyl]methyl}-2,3,5-trifluoro-4-hydroxybenzamide, trifluoroacetate salt], the DC50 is 3.7 nM and the “Huh7_HIBIT-HSD17β13_DC50 GMean Asymptote Maximum” value is reported as 82%.
